Laboratory results published in patent US20170165253A1, “TREATMENT OF SEXUAL DYSFUNCTION AND FOR IMPROVED SEXUAL QUALITY OF LIFE” (ReJoy, priority 2015, published 2017).
Values joined by “and” are separate entries in the source; they are usually repeats but may differ in a detail not shown here. Equal entries are not always repeated. Structures can show the parent of a compound that is named as a salt.

Experiments:
[1] = Blood pressure and heart rate after topical application on the nipple-areola complex (Example 2); type: in vivo, human
Description: A study of the blood pressure and heart rate of five patients receiving topical application on the nipple-areola complex was made. The composition applied was 0.1 mL of a 10% phenylephrine solution for a total dosage of 10 mg phenylephrine HCl. Blood pressure and heart rate were measured at baseline (T=0), after 15 minutes and 30 minutes.

nipple areole complex = assay: Pilot dose study of nipple erection and sensitivity, topical phenylephrine (Example 3); type: in vivo, human; conditions: 10% topical solution
Description: A pilot study was conducted to assess the dosage of topical phenylephrine solution required to elicit nipple erection and sensitivity. […] Two subjects were post-menopausal and the reminder three were pre-menopausal. Subjects were not hypertensive, pregnant or breastfeeding. Three formulations were used: Formula A: 0% topical phenylephrine hydrochloride solution; Formula B: 5% topical phenylephrine hydrochloride solution; Formula C: 10% topical phenylephrine hydrochloride solution.
The study was conducted over 3 days. On day 1, subjects were instructed to apply on the left nipple Formula A and on the right nipple Formula B. On day 2, subjects were instructed to apply on the left nipple Formula A and on the right nipple Formula C. On day 3, subjects were instructed to apply on the left nipple Formula B and on the right nipple Formula C. 0.1 mL of each formula was applied with a cotton swab to the nipple areole complex. […] With the 10% topical phenylephrine solution, response in nipple erection and sensitivity was obtained in less than 30 minutes and lasted for 3-4 hours.

[2] = test system: skin on the subjects forearm; assay: pH pilot study, pilomotor effect on forearm skin (Example 6); type: in vivo, human; conditions: 10% solution
Description: A pilot study was conducted to assess the optimal pH of topical phenylephrine solution required to elicit smooth muscle contraction on the skin. A series of 10% phenylephrine solutions were prepared in phosphate buffer solutions of varied pH. pH 4.6, 4.8, 5.0, 5.2, 5.4, 5.6, 5.8, 6.0, 6.2, 6.4, and 6.6 were used. Areas of skin on the subjects forearm were marked with a surgical pen. 50 microliter of each solution were applied to the marked area of skin and allowed to dry. After one hour the sites of application were visually inspected for the appearance of the pilomotor effect (i.e., “goose bumps”).

nipple areola complex = assay: Restoration of nipple sensitivity post breast surgery, case study (Example 11); type: in vivo, human; conditions: Likert scale (1-10), 45 minutes after 10% solution, single patients; Hydrochloride
Description: A case study was conducted to assess the efficacy of a topical phenylephrine solution in increasing nipple sensitivity in patients that reported a loss in nipple sensitivity post breast surgery. Five subjects ages 36-65 participated in the study. Subjects were asked to rate their nipple sensitivity on a Likert scale (1-10) before surgery and currently (i.e., after surgery). Next, patients were asked to apply a 10% phenylephrine solution to each nipple areola complex. 45 minutes after application of the drug, patients were asked again to rate their nipple sensitivity on a Likert scale (1-10).

[3] = Heart rate, blood pressure and adverse events in Example 12; type: in vivo, human; conditions: for Delta HR t = 15: 15 minutes; for Delta HR t = 15 / Delta HR t = 30 / Delta HR t = 60: single patients, Hydrochloride; for Delta HR t = 30: 30 minutes; for Delta HR t = 60: 60 minutes
Description: 20 healthy, pre-menopausal females were recruited to the study. Subjects were instructed to apply either 4 or 6 drops of an investigational drug to each nipple areola complex. Baseline blood-pressure, heart rate, nipple erection, nipple sensitivity, genital lubrication and arousal were measured and recorded. […]

[4] = IVRT Franz cell skin penetration, excised pig skin; type: in vitro ADME
[5] = 0.1 mL 10% solution on NAC, 15 minutes, single subjects, listed as PHCI, Hydrochloride
[6] = 0.1 mL 10% solution on NAC, 30 minutes, single subjects, listed as PHCI, Hydrochloride

With `CNC[C@H](O)c1cccc(O)c1` [Phenylephrine HCl, Phenylephrine Hydrochloride] the “BP (T = 15)” value [1, 5] was 112/76 and 122/77 and 117/72 and 120/72 and 99/67, the “HR (T = 15)” value [1, 5] was 69 and 77 and 75 and 53 and 68 and the “BP (T = 30)” value [1, 6] was 117/75 and 122/78 and 128/77 and 116/68 and 97/63. The “HR (T = 30)” value [1, 6] was 74 and 80 and 68 and 58 and 69, the “change in blood pressure or heart rate” value ([1]; 0.1 mL 10% solution, five patients, 15 and 30 minutes) was “No significant change in blood pressure or heart rate” and the “duration of response in nipple erection and sensitivity” value (nipple areole complex) was 3 to 4 h. For the same molecule, the “time to response in nipple erection and sensitivity” value (nipple areole complex) was “less than 30 minutes”, the “Results after 1 hour (pilomotor effect)” value ([2]; pH 4.6, 50 microliter on forearm) was “None” and the “Results after 1 hour (pilomotor effect)” value ([2]; pH 4.8) was “Slight”. For the same molecule, the “Results after 1 hour (pilomotor effect)” value ([2]; pH 5.0) was “Strong”, the “Results after 1 hour (pilomotor effect)” value ([2]; pH 5.2) was “Strong” and the “Results after 1 hour (pilomotor effect)” value ([2]; pH 5.4) was “Strong”. For the same molecule, the “Results after 1 hour (pilomotor effect)” value ([2]; pH 5.6) was “Slight”, the “Results after 1 hour (pilomotor effect)” value ([2]; pH 5.8) was “Slight” and the “Results after 1 hour (pilomotor effect)” value ([2]; pH 6.0) was “None”. For the same molecule, the “Results after 1 hour (pilomotor effect)” value ([2]; pH 6.2) was “None”, the “Results after 1 hour (pilomotor effect)” value ([2]; pH 6.4) was “None” and the “Results after 1 hour (pilomotor effect)” value ([2]; pH 6.6) was “None”. For the same molecule, the “Nipple Sensitivity, Post-Surgery + Drug” value (nipple areola complex) was 6 (2×) and 1 and 8 (2×), the “Delta HR t = 15” value ([3]; 10% Arm C, four drops (0.114 mL) per NAC) was −3 (2×) and −10 and 3 (4×) and −7 and 0 (3×) and −1 (2×) and −2 (3×) and 4 and −9 and 6 and −5 and the “Delta HR t = 30” value ([3]; 10% Arm C, four drops) was −2 and −12 and 13 and −7 (3×) and −3 (2×) and −1 (2×) and 5 and 7 (2×) and 3 (2×) and −4 (3×) and 0 (2×). For the same molecule, the “Delta HR t = 60” value ([3]; 10% Arm C, four drops) was −2 (2×) and −7 and −1 (3×) and −6 (2×) and −4 (4×) and 5 (2×) and −8 and 7 and 2 (2×) and −9 and −10, the “Delta HR t = 15” value ([3]; 15% (Arm D), four drops) was −9 (4×) and 1 (2×) and 0 and −4 (2×) and −6 and 4 and −15 and −8 and −5 and −3 (3×) and 6 and −1 and −2 and the “Delta HR t = 30” value ([3]; 15% (Arm D), four drops) was −14 and 4 (2×) and 0 and −1 and −2 (3×) and 6 and −10 (2×) and −4 and −5 and 2 and −12 and 8 and 5 and 1 and 3 and −8. For the same molecule, the “Delta HR t = 60” value ([3]; 15% (Arm D), four drops) was −16 and 4 and −6 (3×) and −2 (4×) and −4 and −7 and −9 and 1 and −3 (2×) and 0 (2×) and −10 and 2 and −11, the “Delta HR t = 15” value ([3]; 20% (Arm B), four drops) was −15 and 3 and −2 (2×) and −1 (2×) and −6 (2×) and 2 and −4 (2×) and −10 and 6 and 1 and −7 and −5 and 10 and −3 and 7 and 0 and the “Delta HR t = 30” value ([3]; 20% (Arm B), four drops) was −20 and 4 and −6 and −14 and −3 (2×) and 7 (2×) and 1 (3×) and −1 (2×) and −7 and 10 (2×) and −9 (2×) and 3 and 6. For the same molecule, the “Delta HR t = 60” value ([3]; 20% (Arm B), four drops) was −21 (2×) and 3 and 1 and −13 and 6 and −1 and 0 (2×) and −8 and −6 (2×) and 4 (2×) and −3 (2×) and −4 and 11 and 9 and −2, the adverse event ([3]; 20% arm) was “one adverse event (nipple pain)” and the “changes in blood pressure or heart rate” value ([3]; all arms, 10-20%) was “no changes in blood pressure or heart rate”. The “total absorption over 24 hours” value ([4]; 0.1 mL of 10% solution per NAC, both NAC) was 16.6 mg and the “less systemic exposure compared to the oral OTC drug” value ([4]; topical dosage vs one 10 mg oral tablet every 4 hours) was “approximately 45%”.
